Test results taken from patent publication US20220241278A1 (InCarda Therapeutics, Inc., priority 2021, published 2022).

How the values were obtained:
[1] = Rat pharmacokinetics: lung tissue and plasma concentration after IV or IT administration; type: in vivo, Sprague Dawley rats; details: IV data, 60 min sample collection period
Experimental: Lung tissue and blood were collected for analysis.
Test System: 72 male Sprague Dawley rats (Charles River Laboratories) were used for the study, 8 weeks old, body weight range at study start was 245.8-317 g.
Experimental Design and Execution: In brief, after the animals were transferred to study, all animals were randomly assigned to treatment groups per the study design below. Animals were treated either via intravenous (IV) administration of formulation R1, or via intratracheal (IT) administration for formulation R2 of the test article.
Plasma and lung concentration vs. time data was analyzed using JMP version 15.2.0. Averages for each time point are reported for groups/time points that have a minimum of 2 animals.
The Therapeutic Advantage (Rd) in Table 8 was calculated using the following equation: […]

[2] = Appearance of about 30 mg/mL imatinib free base in 30% SBEβCD, 50 mM phosphate buffer at different pH; details: about 30 mg/mL in 30% SBβCD

## Cc1ccc(NC(=O)c2ccc(CN3CCN(C)CC3)cc2)cc1Nc1nccc(-c2cccnc2)n1 [imatinib free base, imatinib]
[1]
  distribution between lung tissue and plasma: preferentially accumulates in the lung tissue
[2]; pH 3
  appearance of the mixture: clear solutions
[2]; pH 5
  appearance of the mixture: clear solutions
[2]; pH 7
  appearance of the mixture: white suspension
